{"source": "patent US8389500B2", "about": "“Fused heterocyclic compounds as ion channel modulators” (Gilead Sciences, Inc., priority 2008, dated 2013)"}
{"target": "T1, wild-type human cardiac sodium channel, hNav1.5 (late sodium current) (Homo sapiens, UniProt Q14524)", "T1 construct": "host or cells: HEK293", "T1 sequence (Q14524 whole entry)": "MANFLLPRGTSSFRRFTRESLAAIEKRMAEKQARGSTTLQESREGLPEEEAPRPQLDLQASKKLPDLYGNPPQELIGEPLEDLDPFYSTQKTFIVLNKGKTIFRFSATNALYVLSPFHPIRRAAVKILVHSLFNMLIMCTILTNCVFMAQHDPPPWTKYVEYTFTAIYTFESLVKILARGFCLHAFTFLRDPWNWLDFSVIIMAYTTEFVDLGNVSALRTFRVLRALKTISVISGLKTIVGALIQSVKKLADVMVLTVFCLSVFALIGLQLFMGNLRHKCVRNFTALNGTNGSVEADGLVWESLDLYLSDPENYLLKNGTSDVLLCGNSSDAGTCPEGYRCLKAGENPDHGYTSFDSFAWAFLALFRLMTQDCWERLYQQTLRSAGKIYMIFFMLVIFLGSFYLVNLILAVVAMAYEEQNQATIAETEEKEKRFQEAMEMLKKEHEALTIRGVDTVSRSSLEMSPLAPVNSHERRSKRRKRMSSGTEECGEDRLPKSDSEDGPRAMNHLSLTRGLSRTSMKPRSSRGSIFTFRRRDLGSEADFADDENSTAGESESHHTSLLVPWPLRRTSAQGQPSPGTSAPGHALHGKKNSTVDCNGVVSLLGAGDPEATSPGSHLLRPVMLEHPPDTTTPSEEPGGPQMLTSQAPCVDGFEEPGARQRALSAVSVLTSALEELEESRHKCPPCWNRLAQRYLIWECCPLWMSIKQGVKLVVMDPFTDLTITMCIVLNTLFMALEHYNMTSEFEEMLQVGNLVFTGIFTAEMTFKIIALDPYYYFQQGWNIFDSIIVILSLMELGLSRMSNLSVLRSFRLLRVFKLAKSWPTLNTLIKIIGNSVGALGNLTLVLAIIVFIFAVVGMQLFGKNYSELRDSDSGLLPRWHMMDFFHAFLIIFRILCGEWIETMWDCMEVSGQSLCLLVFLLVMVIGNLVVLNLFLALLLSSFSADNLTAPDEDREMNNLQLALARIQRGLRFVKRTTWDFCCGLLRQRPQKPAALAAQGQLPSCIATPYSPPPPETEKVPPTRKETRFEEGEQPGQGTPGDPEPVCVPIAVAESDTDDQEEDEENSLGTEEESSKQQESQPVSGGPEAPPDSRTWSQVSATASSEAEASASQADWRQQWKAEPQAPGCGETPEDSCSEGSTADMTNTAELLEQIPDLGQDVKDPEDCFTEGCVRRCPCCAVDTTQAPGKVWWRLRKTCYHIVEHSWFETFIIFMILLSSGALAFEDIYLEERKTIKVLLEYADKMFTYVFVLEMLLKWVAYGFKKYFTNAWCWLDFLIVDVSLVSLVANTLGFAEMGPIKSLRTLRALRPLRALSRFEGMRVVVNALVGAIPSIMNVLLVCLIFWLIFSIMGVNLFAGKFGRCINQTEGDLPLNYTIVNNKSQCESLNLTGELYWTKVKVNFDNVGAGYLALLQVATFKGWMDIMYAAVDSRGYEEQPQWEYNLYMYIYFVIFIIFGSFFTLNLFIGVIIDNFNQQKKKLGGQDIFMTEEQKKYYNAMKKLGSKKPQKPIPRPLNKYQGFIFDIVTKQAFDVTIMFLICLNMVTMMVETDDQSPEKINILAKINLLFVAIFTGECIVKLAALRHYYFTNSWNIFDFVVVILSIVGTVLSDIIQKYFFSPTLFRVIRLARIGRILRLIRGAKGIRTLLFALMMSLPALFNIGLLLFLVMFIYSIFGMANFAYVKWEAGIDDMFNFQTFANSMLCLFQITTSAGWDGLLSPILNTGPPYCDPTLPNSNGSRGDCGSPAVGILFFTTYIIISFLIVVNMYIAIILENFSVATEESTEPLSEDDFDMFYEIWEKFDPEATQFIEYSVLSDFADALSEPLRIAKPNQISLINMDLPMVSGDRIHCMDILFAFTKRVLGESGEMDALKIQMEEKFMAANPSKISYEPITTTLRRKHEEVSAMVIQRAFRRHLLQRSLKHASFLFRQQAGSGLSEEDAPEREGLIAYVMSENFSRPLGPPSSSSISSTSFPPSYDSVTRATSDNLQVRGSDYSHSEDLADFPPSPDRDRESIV", "experiment": "Late INa screening assay (PatchXpress whole cell patch clamp)", "format": "cell-based", "conditions": "1 μM test compound; HEK293 hNav1.5; late INa generated with 10 μM Tefluthrin (some experiments 50 nM ATX II); read-out: Late INa % blk (1 μM test cmpd)", "description": "(§1) The late sodium current (Late INa) and peak sodium current (Peak INa) assays are performed on an automated electrophysiology platform, PatchXpress 7000A (MDS Analytical Technologies, Sunnyvale, Calif.), which uses the whole cell patch clamp technique to measure currents through the cell membrane of up to 16 cells at a time. The assay uses an HEK293 (human embryonic kidney) cell line heterologously expressing the wild-type human cardiac sodium channel, hNav1.5, purchased from Millipore (Billerica, Mass.). No beta subunits were coexpressed with the Na channel alpha subunit. Cells are maintained with standard tissue culture procedures and stable channel expression is maintained with 400 μg/ml Geneticin in the culture medium. […] Experiments are carried out at 24-27° C.\n(§2) For both the Late INa and Peak INa assays, series resistance compensation is set to 50% and whole-cell compensation is performed automatically. […] Currents through open sodium channels are automatically recorded and stored in the DataXpress2 database (MDS Analytical Technologies, Sunnyvale, Calif.). Analysis is performed using DataXpress2 analysis software and data are compiled in Excel.\n(§3) Compound stocks are routinely made in glass vials to 10 mM in dimethyl sulfoxide (DMSO). In some cases, when compounds are not soluble in DMSO, they are made in 100% ethanol. Stocks are sonicated as necessary. The extracellular solution for screening Late INa is composed of: 140 mM NaCl, 4 mM KCl, 1.8 mM CaCl2, 0.75 mM MgCl2, and 5 mM HEPES with pH adjusted to 7.4 using NaOH. The extracellular solution for screening Peak INa is composed of: 20 mM NaCl, 120 mM N-methyl-D glucamine, 4 mM KCl, 1.8 mM CaCl2, 0.75 mM MgCl2, and 5 mM HEPES with pH adjusted to 7.4 using HCl. The intracellular solution used to perfuse the inside of the cells for both the Late INa and Peak INa assays contains: 120 mM CsF, 20 mM CsCl, 5 mM EGTA, 5 mM HEPES and pH adjusted to 7.4 with CsOH. […] The 0Na extracellular solution used at the end of each experiment for the Late INa and Peak INa assays to measure baseline current contains: 140 mM N-methyl-D-glucamine; 4 mM KCl; 1.8 mM CaCl2; 0.75 mM MgCl2; 5 mM HEPES and pH was adjusted to 7.4 with HCl.\n(§4) For the Late INa assay, sodium channels are activated every 10 seconds (0.1 Hz) by depolarizing the cell membrane to −20 mV for 250 milliseconds (ms) from a holding potential of −120 mV. In response to a −20 mV voltage step, typical Nav1.5 sodium currents activate rapidly to a peak negative current and then inactivate nearly completely within […].\n(§5) All compounds are tested to determine their activity in blocking the late sodium current. Late INa current is generated by adding 10 μM Tefluthrin (pyrethroid) to the extracellular solution while recording Na currents For some experiments, 50 nM ATX II (sea anemone toxin), another late Na activator, was used to generate the late component. […] After establishing the whole cell recording configuration, late INa activators are added to each well 4 times over a 16-17 minute period so that the late component of the Na current reaches a stable value. […] Measurements are made at the end of exposure to the third compound addition and values are normalized to the current level when all Na^+ is removed from the extracellular solution after two additions of ONa-ECF. Results are reported as percent block of late INa", "units": {"inhibition at 1 µM": "%"}}
{"smiles": "CS(=O)(=O)Nc1ccc(-c2cccc(Cl)c2)c(Cl)c1", "note": "[PT-053, N-(2,3′-dichlorobiphenyl-4-yl)methanesulfonamide]", "inhibition at 1 µM": 29.9}
{"smiles": "CS(=O)(=O)Nc1ccc(-c2ccc(F)c(Cl)c2)c(Cl)c1", "note": "[PT-038, N-(2,3′-dichloro-4′-fluorobiphenyl-4-yl)methanesulfonamide]", "inhibition at 1 µM": 28.8}
{"target": "T1, wild-type human cardiac sodium channel, hNav1.5 (late sodium current)", "experiment": "Late INa screening assay (PatchXpress whole cell patch clamp)", "format": "cell-based", "conditions": "10 μM test compound; HEK293 hNav1.5; late INa generated with 10 μM Tefluthrin (some experiments 50 nM ATX II); read-out: Late INa % blk (10 μM test cmpd)", "description": "as §1, §2, §3, §4, §5", "units": {"inhibition at 10 µM": "%"}}
{"smiles": "O=S(=O)(C1CC1)N(Cc1cccnc1)c1ccc(-c2cccc(OC(F)(F)F)c2)c(Cl)c1", "note": "[PT-081, N-[2-chloro-3′-(trifluoromethoxy)biphenyl-4-yl]-N-(pyridin-3-ylmethyl)cyclopropanesulfonamide]", "inhibition at 10 µM": 40.4}
{"smiles": "CS(=O)(=O)Nc1ccc(-c2ccc(Cl)c(F)c2)cc1OC(F)(F)F", "note": "[PT-074, N-[4′-chloro-3′-fluoro-3-(trifluoromethoxy)biphenyl-4-yl]methanesulfonamide]", "inhibition at 10 µM": 24.2}
{"smiles": "O=C(O)c1cc(-c2ccc(Oc3ccccc3)cc2)ccc1NS(=O)(=O)C1CC1", "note": "[PT-117, 4-[(cyclopropylsulfonyl)amino]-4′-phenoxybiphenyl-3-carboxylic acid]", "inhibition at 10 µM": 40.7}
{"smiles": "CC(C)(C)OC(=O)CN(c1ccc(-c2cccc(OC(F)(F)F)c2)c(F)c1)S(C)(=O)=O", "note": "[PT-101, tert-butyl N-[2-fluoro-3′-(trifluoromethoxy)biphenyl-4-yl]-N-(methylsulfonyl)glycinate]", "inhibition at 10 µM": 72.9}
{"smiles": "CS(=O)(=O)Nc1ccc(-c2cccc(Cl)c2)c(Cl)c1", "note": "[PT-053, N-(2,3′-dichlorobiphenyl-4-yl)methanesulfonamide]", "inhibition at 10 µM": 72.2}
{"smiles": "COc1cc(NS(C)(=O)=O)ccc1-c1ccc(OC(F)(F)F)cc1", "note": "[PT-009, N-[2-methoxy-4′-(trifluoromethoxy)biphenyl-4-yl]methanesulfonamide]", "inhibition at 10 µM": 20.9}
{"smiles": "CS(=O)(=O)N(CC(=O)O)c1ccc(-c2cccc(OC(F)(F)F)c2)c(Cl)c1", "note": "[PT-029, N-[2-chloro-3′-(trifluoromethoxy)biphenyl-4-yl]-N-(methylsulfonyl)glycine]", "inhibition at 10 µM": 28.4}
{"smiles": "Cc1cc(NS(=O)(=O)C2CC2)ccc1-c1ccc(-c2nn[nH]n2)cc1", "note": "[PT-158, N-(2-methyl-4′-(2H-tetrazol-5-yl)biphenyl-4-yl)cyclopropanesulfonamide]", "inhibition at 10 µM": 2.8}
{"smiles": "CC(C)Oc1ccc(-c2ccc(NS(=O)(=O)C3CC3)c(C#N)c2)cc1", "note": "[PT-152, N-(3-cyano-4′-isopropoxybiphenyl-4-yl)cyclopropanesulfonamide]", "inhibition at 10 µM": 29}
{"smiles": "CS(=O)(=O)Nc1ccc(-c2ccc(F)c(F)c2)c(Cl)c1", "note": "[PT-023, N-(2-chloro-3′,4′-difluorobiphenyl-4-yl)methanesulfonamide]", "inhibition at 10 µM": 48.2}
{"smiles": "CS(=O)(=O)Nc1ccc(-c2ccc(F)c(F)c2)cc1", "note": "[PT-002, N-(3′,4′-difluorobiphenyl-4-yl)methanesulfonamide]", "inhibition at 10 µM": 21.8}
{"smiles": "CS(=O)(=O)Nc1ccc(-c2cccc(C(F)(F)F)c2)cc1OC(F)(F)F", "note": "[PT-076, N-[3-(trifluoromethoxy)-3′-(trifluoromethyl)biphenyl-4-yl]methanesulfonamide]", "inhibition at 10 µM": 18.7}
{"smiles": "COc1ccc(-c2ccc(NS(C)(=O)=O)cc2Cl)cc1", "note": "[PT-051, N-(2-chloro-4′-methoxybiphenyl-4-yl)methanesulfonamide]", "inhibition at 10 µM": 27}
{"smiles": "N#Cc1cc(-c2ccc(Oc3ccccc3)cc2)ccc1NS(=O)(=O)C1CC1", "note": "[PT-115, N-(3-cyano-4′-phenoxybiphenyl-4-yl)cyclopropanesulfonamide]", "inhibition at 10 µM": 61.8}
{"smiles": "CCOC(=O)CN(c1ccc(-c2cccc(OC(F)(F)F)c2)c(Cl)c1)S(C)(=O)=O", "note": "[PT-028, ethyl N-[2-chloro-3′-(trifluoromethoxy)biphenyl-4-yl]-N-(methylsulfonyl)glycinate]", "inhibition at 10 µM": 62.1}
{"smiles": "CS(=O)(=O)N(CC(=O)O)c1ccc(-c2ccc(C(F)(F)F)cc2)c(Cl)c1", "note": "[PT-111, N-[2-chloro-4′-(trifluoromethyl)biphenyl-4-yl]-N-(methylsulfonyl)glycine]", "inhibition at 10 µM": 14.6}
{"smiles": "COc1ccc(NS(C)(=O)=O)cc1-c1ccc(Cl)c(F)c1", "note": "[PT-110, N-(4′-chloro-3′-fluoro-6-methoxybiphenyl-3-yl)methanesulfonamide]", "inhibition at 10 µM": 39.9}
{"smiles": "Cc1cc(-c2ccc(Oc3ccccc3)cc2)c(Cl)cc1N(Cc1ccc(C(=O)O)cc1)S(C)(=O)=O", "note": "[PT-113, 4-{[(2-chloro-5-methyl-4′-phenoxybiphenyl-4-yl)(methylsulfonyl)amino]methyl}benzoic acid]", "inhibition at 10 µM": 34}
{"smiles": "CS(=O)(=O)Nc1ccc(-c2ccc(F)cc2F)c(Cl)c1", "note": "[PT-024, N-(2-chloro-2′,4′-difluorobiphenyl-4-yl)methanesulfonamide]", "inhibition at 10 µM": 43.5}
{"smiles": "CS(=O)(=O)Nc1ccc(-c2ccccc2OC(F)(F)F)c(C(F)(F)F)c1", "note": "[PT-016, N-[2′-(trifluoromethoxy)-2-(trifluoromethyl)biphenyl-4-yl]methanesulfonamide]", "inhibition at 10 µM": 45.8}
{"smiles": "CCCS(=O)(=O)Nc1ccc(-c2ccc(Cl)c(F)c2)c(Cl)c1", "note": "[PT-027, N-(2,4′-dichloro-3′-fluorobiphenyl-4-yl)propane-1-sulfonamide]", "inhibition at 10 µM": 55.5}
{"smiles": "COP(=O)(O)c1cc(-c2ccc(Oc3ccc(F)cc3)cc2)ccc1NS(C)(=O)=O", "note": "[PT-159, methyl hydrogen 4′-(4-fluorophenoxy)-4-(methylsulfonamido)biphenyl-3-ylphosphonate]", "inhibition at 10 µM": 36.1}
{"smiles": "CS(=O)(=O)Nc1ccc(-c2ccc(Oc3ccc(F)cc3)cc2)cc1Cl", "note": "[PT-149, N-(3-chloro-4′-(4-fluorophenoxy)biphenyl-4-yl)methanesulfonamide]", "inhibition at 10 µM": 58}
{"smiles": "CS(=O)(=O)Nc1ccc(-c2ccc(C(F)(F)F)cc2)c(F)c1", "note": "[PT-080, N-[2-fluoro-4′-(trifluoromethyl)biphenyl-4-yl]methanesulfonamide]", "inhibition at 10 µM": 66}
{"smiles": "CS(=O)(=O)Nc1ccc(-c2ccc(F)cc2Cl)c(Cl)c1", "note": "[PT-045, N-(2,2′-dichloro-4′-fluorobiphenyl-4-yl)methanesulfonamide]", "inhibition at 10 µM": 57.5}
{"smiles": "CS(=O)(=O)Nc1ccc(-c2ccc(Oc3ccccc3)cc2)cc1C(=O)O", "note": "[PT-120, 4-[(methylsulfonyl)amino]-4′-phenoxybiphenyl-3-carboxylic acid]", "inhibition at 10 µM": 27}
{"smiles": "Cc1cc(N(Cc2ccc(C(=O)OC(C)(C)C)cc2)S(C)(=O)=O)ccc1-c1ccc(Oc2ccccc2)cc1", "note": "[PT-107, tert-butyl 4-{[(2-methyl-4′-phenoxybiphenyl-4-yl)(methylsulfonyl)amino]methyl}benzoate]", "inhibition at 10 µM": 21.2}
{"smiles": "CS(=O)(=O)Nc1ccc(-c2cccc(C(F)(F)F)c2)c(Cl)c1", "note": "[PT-036, N-[2-chloro-3′-(trifluoromethyl)biphenyl-4-yl]methanesulfonamide]", "inhibition at 10 µM": 64.1}
{"smiles": "CNC(=O)c1cc(NS(=O)(=O)C2CC2)ccc1-c1ccc(Oc2ccccc2)cc1", "note": "[PT-139, 4-(cyclopropanesulfonamido)-N-methyl-4′-phenoxybiphenyl-2-carboxamide]", "inhibition at 10 µM": 43.7}
{"smiles": "Cc1cc(N(Cc2ccc([N+](=O)[O-])cc2)S(C)(=O)=O)ccc1-c1ccc(Oc2ccccc2)cc1", "note": "[PT-143, N-(2-methyl-4′-phenoxybiphenyl-4-yl)-N-(4-nitrobenzyl)methanesulfonamide]", "inhibition at 10 µM": 8.7}
{"smiles": "CS(=O)(=O)Nc1ccc(-c2ccc(Oc3ccccc3)cc2)cc1OC(F)(F)F", "note": "[PT-119, N-[4′-phenoxy-3-(trifluoromethoxy)biphenyl-4-yl]methanesulfonamide]", "inhibition at 10 µM": 6.6}
{"smiles": "CS(=O)(=O)N(Cc1ccc(CC(=O)O)cc1)c1ccc(-c2ccc(Oc3ccccc3)cc2)c(Cl)c1", "note": "[PT-161, 2-(4-((N-(2-chloro-4′-phenoxybiphenyl-4-yl)methylsulfonamido)methyl)phenyl)acetic acid]", "inhibition at 10 µM": 30.9}
{"smiles": "CCOC(=O)c1ccc(CN(c2ccc(-c3ccc(OC(C)C)cc3)c(C)c2)S(C)(=O)=O)cc1", "note": "[PT-145, ethyl 4-((N-(4′-isopropoxy-2-methylbiphenyl-4-yl)methylsulfonamido)methyl)benzoate]", "inhibition at 10 µM": 17.1}
{"smiles": "CS(=O)(=O)Nc1ccc(-c2ccc(F)c(Cl)c2)c(Cl)c1", "note": "[PT-038, N-(2,3′-dichloro-4′-fluorobiphenyl-4-yl)methanesulfonamide]", "inhibition at 10 µM": 71}
